# Organism: Rattus norvegicus
# Test: Open TG-GATES - Regimen: Daily Repeat
# Type: toxicity, organism-based, Sprague-Dawley
# Parameters: regimen Daily Repeat, gender Male, age 6 weeks
# Details: in vivo, po, 500 mg/kg, route gavage, dose level High; for APTT / Bas / Eos / Fbg / Hb / Ht / Lym / MCH / MCHC / MCV / Mono / Neu / PT / Plat / RBC / Ret / WBC: tissue Blood; for KIDNEY_L / KIDNEY_R / KIDNEY_TOTAL: tissue Kidney; for LIVER: tissue Liver; for A/G / ALP / ALT / AST / BUN / CRE / Ca / Cl / DBIL / GLC / IP / K / LDH / Na / PL / RALB / TBIL / TC / TG / TP / gamma-GTP: tissue Plasma
smiles,measurement,setting,value
CN1C(=O)CCS(=O)(=O)C1c1ccc(Cl)cc1 (configuration not stated) [CHLORMEZANONE],TERMINAL_BW,"72 h, time 3 day",218.1 g
same,APTT,"72 h, time 3 day",22.2 s
same,Bas,"72 h, time 3 day",0%
same,Eos,"72 h, time 3 day",1%
same,Fbg,"72 h, time 3 day",285.2 mg/dL
same,Hb,"72 h, time 3 day",13.2 g/dL
same,Ht,"72 h, time 3 day",38.9%
same,Lym,"72 h, time 3 day",75.2%
same,MCH,"72 h, time 3 day",21.2 pg
same,MCHC,"72 h, time 3 day",33.9%
same,MCV,"72 h, time 3 day",62.8 fL
same,Mono,"72 h, time 3 day",3.2%
same,Neu,"72 h, time 3 day",20.2%
same,PT,"72 h, time 3 day",11.4 s
same,Plat,"72 h, time 3 day",115.7 x10_4/uL
same,RBC,"72 h, time 3 day",620.2 x10_4/ul
same,Ret,"72 h, time 3 day",5.3%
same,WBC,"72 h, time 3 day",90.9 x10_2/uL
same,KIDNEY_L,"72 h, time 3 day",0.9 g
same,KIDNEY_R,"72 h, time 3 day",0.9 g
same,KIDNEY_TOTAL,"72 h, time 3 day",1.9 g
same,LIVER,"72 h, time 3 day",13.5 g
same,A/G,"72 h, time 3 day",0.9
same,ALP,"72 h, time 3 day",1900.8 IU/L
same,ALT,"72 h, time 3 day",60.6 IU/L
same,AST,"72 h, time 3 day",77.2 IU/L
same,BUN,"72 h, time 3 day",12.6 mg/dL
same,CRE,"72 h, time 3 day",0.2 mg/dL
same,Ca,"72 h, time 3 day",10.8 mg/dL
same,Cl,"72 h, time 3 day",107.2 meq/L
same,DBIL,"72 h, time 3 day",0.02 mg/dL
same,GLC,"72 h, time 3 day",179.4 mg/dL
same,IP,"72 h, time 3 day",6.9 mg/dL
same,K,"72 h, time 3 day",4.3 meq/L
same,LDH,"72 h, time 3 day",101.4 IU/L
same,Na,"72 h, time 3 day",142 meq/L
same,PL,"72 h, time 3 day",157.6 mg/dL
same,RALB,"72 h, time 3 day",2.6 g/dL
same,TBIL,"72 h, time 3 day",0.05 mg/dL
same,TC,"72 h, time 3 day",84.6 mg/dL
same,TG,"72 h, time 3 day",99.4 mg/dL
same,TP,"72 h, time 3 day",5.6 g/dL
same,gamma-GTP,"72 h, time 3 day",1.6 IU/L
same,TERMINAL_BW,"[…], time 7 day",254.1 g
same,TERMINAL_BW,"[…], time 14 day",312.8 g
same,TERMINAL_BW,"[…], time 28 day",364.7 g
same,APTT,"[…], time 7 day",22 s
same,Bas,"[…], time 7 day",0%
same,Eos,"[…], time 7 day",0.8%
same,Fbg,"[…], time 7 day",341.2 mg/dL
same,Hb,"[…], time 7 day",12.6 g/dL
same,Ht,"[…], time 7 day",37.3%
same,Lym,"[…], time 7 day",70.4%
same,MCH,"[…], time 7 day",20.9 pg
same,MCHC,"[…], time 7 day",33.9%
same,MCV,"[…], time 7 day",61.5 fL
same,Mono,"[…], time 7 day",3.2%
same,Neu,"[…], time 7 day",24.8%
same,PT,"[…], time 7 day",11.5 s
same,Plat,"[…], time 7 day",147.1 x10_4/uL
same,RBC,"[…], time 7 day",606.6 x10_4/ul
same,Ret,"[…], time 7 day",6.9%
same,WBC,"[…], time 7 day",116.2 x10_2/uL
same,APTT,"[…], time 14 day",24.3 s
same,Bas,"[…], time 14 day",0%
same,Eos,"[…], time 14 day",0.6%
same,Fbg,"[…], time 14 day",314.6 mg/dL
same,Hb,"[…], time 14 day",13.4 g/dL
same,Ht,"[…], time 14 day",38.7%
same,Lym,"[…], time 14 day",76.8%
same,MCH,"[…], time 14 day",20.6 pg
same,MCHC,"[…], time 14 day",34.8%
same,MCV,"[…], time 14 day",59.4 fL
same,Mono,"[…], time 14 day",3.6%
same,Neu,"[…], time 14 day",18.2%
same,PT,"[…], time 14 day",12 s
same,Plat,"[…], time 14 day",122.7 x10_4/uL
same,RBC,"[…], time 14 day",651.4 x10_4/ul
same,Ret,"[…], time 14 day",6.4%
same,WBC,"[…], time 14 day",112.6 x10_2/uL
same,APTT,"[…], time 28 day",28.5 s
same,Bas,"[…], time 28 day",0%
same,Eos,"[…], time 28 day",1.2%
same,Fbg,"[…], time 28 day",286.4 mg/dL
same,Hb,"[…], time 28 day",13 g/dL
same,Ht,"[…], time 28 day",37.8%
same,Lym,"[…], time 28 day",77%
same,MCH,"[…], time 28 day",20.2 pg
same,MCHC,"[…], time 28 day",34.5%
same,MCV,"[…], time 28 day",58.5 fL
same,Mono,"[…], time 28 day",1.8%
same,Neu,"[…], time 28 day",19.6%
same,PT,"[…], time 28 day",12.6 s
same,Plat,"[…], time 28 day",119.4 x10_4/uL
same,RBC,"[…], time 28 day",646.6 x10_4/ul
same,Ret,"[…], time 28 day",7.6%
same,WBC,"[…], time 28 day",126.7 x10_2/uL
same,KIDNEY_L,"[…], time 7 day",1 g
same,KIDNEY_R,"[…], time 7 day",1 g
same,KIDNEY_TOTAL,"[…], time 7 day",2 g
same,KIDNEY_L,"[…], time 14 day",1.2 g
same,KIDNEY_R,"[…], time 14 day",1.2 g
same,KIDNEY_TOTAL,"[…], time 14 day",2.4 g
same,KIDNEY_L,"[…], time 28 day",1.3 g
same,KIDNEY_R,"[…], time 28 day",1.3 g
same,KIDNEY_TOTAL,"[…], time 28 day",2.5 g
same,LIVER,"[…], time 7 day",16 g
same,LIVER,"[…], time 14 day",19 g
same,LIVER,"[…], time 28 day",20.4 g
same,A/G,"[…], time 7 day",0.9
same,ALP,"[…], time 7 day",1196.8 IU/L
same,ALT,"[…], time 7 day",48.2 IU/L
same,AST,"[…], time 7 day",59.8 IU/L
same,BUN,"[…], time 7 day",16.6 mg/dL
same,CRE,"[…], time 7 day",0.2 mg/dL
same,Ca,"[…], time 7 day",11.7 mg/dL
same,Cl,"[…], time 7 day",106 meq/L
same,DBIL,"[…], time 7 day",0.016 mg/dL
same,GLC,"[…], time 7 day",202.2 mg/dL
same,IP,"[…], time 7 day",7 mg/dL
same,K,"[…], time 7 day",4.2 meq/L
same,LDH,"[…], time 7 day",96.2 IU/L
same,Na,"[…], time 7 day",143.6 meq/L
same,PL,"[…], time 7 day",144.8 mg/dL
same,RALB,"[…], time 7 day",3 g/dL
same,TBIL,"[…], time 7 day",0.032 mg/dL
same,TC,"[…], time 7 day",80.6 mg/dL
same,TG,"[…], time 7 day",70.2 mg/dL
same,TP,"[…], time 7 day",6.3 g/dL
same,gamma-GTP,"[…], time 7 day",1.8 IU/L
same,A/G,"[…], time 14 day",0.9
same,ALP,"[…], time 14 day",1377.8 IU/L
same,ALT,"[…], time 14 day",57.2 IU/L
same,AST,"[…], time 14 day",62.4 IU/L
same,BUN,"[…], time 14 day",16.4 mg/dL
same,CRE,"[…], time 14 day",0.2 mg/dL
same,Ca,"[…], time 14 day",11.4 mg/dL
same,Cl,"[…], time 14 day",106 meq/L
same,DBIL,"[…], time 14 day",0.018 mg/dL
same,GLC,"[…], time 14 day",195.6 mg/dL
same,IP,"[…], time 14 day",7.1 mg/dL
same,K,"[…], time 14 day",4.2 meq/L
same,LDH,"[…], time 14 day",122.6 IU/L
same,Na,"[…], time 14 day",143.8 meq/L
same,PL,"[…], time 14 day",149 mg/dL
same,RALB,"[…], time 14 day",2.9 g/dL
same,TBIL,"[…], time 14 day",0.084 mg/dL
same,TC,"[…], time 14 day",75 mg/dL
same,TG,"[…], time 14 day",88 mg/dL
same,TP,"[…], time 14 day",6.4 g/dL
same,gamma-GTP,"[…], time 14 day",2 IU/L
same,A/G,"[…], time 28 day",0.8
same,ALP,"[…], time 28 day",1039.2 IU/L
same,ALT,"[…], time 28 day",55.2 IU/L
same,AST,"[…], time 28 day",59.6 IU/L
same,BUN,"[…], time 28 day",16.8 mg/dL
same,CRE,"[…], time 28 day",0.3 mg/dL
same,Ca,"[…], time 28 day",10.6 mg/dL
same,Cl,"[…], time 28 day",106.4 meq/L
same,DBIL,"[…], time 28 day",0.014 mg/dL
same,GLC,"[…], time 28 day",188.8 mg/dL
same,IP,"[…], time 28 day",6.1 mg/dL
same,K,"[…], time 28 day",4.2 meq/L
same,LDH,"[…], time 28 day",70.8 IU/L
same,Na,"[…], time 28 day",143.6 meq/L
same,PL,"[…], time 28 day",148 mg/dL
same,RALB,"[…], time 28 day",2.9 g/dL
same,TBIL,"[…], time 28 day",0.082 mg/dL
same,TC,"[…], time 28 day",76 mg/dL
same,TG,"[…], time 28 day",67 mg/dL
same,TP,"[…], time 28 day",6.5 g/dL
same,gamma-GTP,"[…], time 28 day",2.4 IU/L
